Experiment [1] deals with rabbit skeletal muscle myofibrils. As to the kind of experiment: Myofibrillar contractility assays (20 μL myofibril drop, 18 mM ATP added). It counts as biochemical. As to conditions: for % Contraction of imaged myofibril (FIG. 55, 56): after ATP; for IC50: read-out: IC-50 Value (50 percent of the reduction in percent contractility). How it is done: Propionic acid, imidazole, and Mg(C2H3O2)2 were purchased from Sigma-Aldrich (St. Louis, MO). Boric Acid and KOH were purchased (EM Industries, Gibbstown, NJ). CaCl2) were purchased from Avantor (Center Valley, PA). We used myofibrils previously extracted and prepared from rabbit skeletal muscle as described by Duong and Reisler (1989). Afterwards, we stored the myofibril suspension with glycerol in a 1:1 ratio at −10° C.
We created a buffer solution with 2.2 mM Mg(C2H3O2)2, 10 mM imidazole, 130 mM propionic acid, 0.1 mM CaCl2) and titrated the solution with 10 M KOH until the pH reached 7. We decided to combine these chemicals and target a pH of 7 in order to simulate regular cell conditions for the myofibrils.
We began by extracting 50 mg of the myofibril suspension and adding 1 mL of our buffer into a 2 mL microcentrifuge tube. Next, we centrifuged the tube three times at 5000 RPM for 5 minutes on an IEC Micromax microcentrifuge, thereby isolating the denser myofibril from the lighter glycerol and unnecessary cellular constituents. After each centrifugation, we disposed of the supernatant and filled the microcentrifuge tube to 1 mL again with our buffer. Furthermore, we used a Fisher Vortex Genie 2™ to dislodge the pellet from the bottom of the microcentrifuge tube, making the next centrifugation effective. Following the series of centrifugations, we stored the myofibrils with the buffer in a 4° C. fridge to maintain their biological function. Every 2 days, we prepared new myofibrils with the method described above because previous batches of myofibril would be subject to rigor mortis: muscle death where myofibrils are indefinitely contracted.
A myofibrillar contractility assay tests the effect of certain chemical compounds on myofibril contraction. The assay involves the interaction of myofibrils with ATP, and we measured sarcomere length before and after the addition of ATP to determine percent contractility of myofibrils.
We created an apparatus for myofibrillar contractility assays by attaching a coverslip to a modified petri dish using electrical tape. Each coverslip used on the apparatus can run three assays total. We placed the apparatus on a ZEISS IM35™ inverted microscope equipped with a CANON POWERSHOT A510™ connected to one of the microscope's ocular lenses. Our apparatus allowed us to precisely adjust the field of view of the microscope, enabling efficient and quality imaging (FIG. 8).
To run an assay, we first placed a 20 μL drop of our prepared myofibrils onto the coverslip. Then, we added chemical modifiers (peptides and antibodies) to each droplet as needed and used a CARL ZEISS PLAN 40/0.65 160/0.17™ objective lens to focus on the myofibrils with the microscope. Since the antibodies have a much larger molecular mass than the peptides, we determined that the antibodies would also require a longer period of time to diffuse throughout the myofibril droplet. We allowed the antibodies a minimum of 5 minutes to diffuse into the myofibril solution while we gave peptide modifiers 30 seconds to settle into the solution.
These myofibrils would be likely to show evidence of contraction when they interacted with the ATP in the assay. We photographed the chosen myofibril before the addition of ATP. Then, we pipetted 2 μL of 18 mM ATP on the myofibril droplet, and we typically observed a visible contraction within 30 seconds. We needed to carefully watch the camera screen when adding the ATP because the addition of ATP solution onto the drop or the motion of the myofibril as it contracted would occasionally displace the myofibril. If the myofibril moved, we adjusted our field of view accordingly so that the myofibril was visible once again.
After the contraction concluded, we re-imaged the myofibril to compare the current sarcomere length with the initial sarcomere length. […]

For experiment [2], the system named is rabbit skeletal myosin HMM. As to the kind of experiment: In vitro motility assay of actin thin filaments over myosin HMM. It counts as biochemical. An excerpt:
In vitro motility assay a classic method to determine the sliding velocity of actin thin filaments over immobilized myosin in the presence of ATP (Kron et al., 1991). The assay involves the immobilization of myosin either in thick filament assembly or through individual myosin molecule on a nitrocellulose or dichlorodimethylsilane treated coverslip. Fluorescently labelled actin thin filament is allowed to slide across the bound myosin molecule upon addition of ATP. Sliding of actin over myosin treated with myosin S2 binding proteins would establish their effect over acto-myosin interaction and overall force produced. Myosin heavy meromyosin would be enough to test the effect of stabilizer and destabilizer over the acto-myosin interaction, however to test the effect of MyBPC over myosin reconstituted in its thick filament form would be required since MyBPC binds to both light meromyosin and myosin S2. Myosin in its thick filament form will improve the binding of MyBPC to a myosin molecule rather than a single myosin molecule immobilized on a glass surface.
Rabbit skeletal myosin is dialyzed against buffer containing 0.5 M potassium chloride and 10 mM imidazole with pH 7.0 overnight to remove the impurities. Dialyzed myosin undergoes trypsin digestion with 1 mM magnesium chloride and α-chymotrypsin, digestion was stopped after addition of phenylmethylsulfonylfluoride in methanol at room temperature. Tryptic digest of myosin is dialyzed overnight at 4° C. against buffer containing 0.04 M potassium chloride and 10 mM imidazole with pH 7.0. Dialyzed tryptic digest of myosin is centrifuged at 21000 g for 60 minutes at 4° C. to yield myosin heavy meromyosin in the supernatant. This myosin heavy meromyosin achieved has a mixture of ATP sensitive and ATP insensitive heads. To purify myosin heavy meromyosin with ATP sensitive myosin S1 heads, F actin is added at an equimolar concentration to the unpurified myosin heavy meromyosin extract along with 1 mM ATP and magnesium chloride. Low salt assay buffer (25 mM potassium chloride, 10 mM imidazole, 2 mM magnesium chloride and 10 mM dithioerythritol with pH 7.0) was used as mixing solvent for the myosin heavy meromyosin purification step. Purified myosin heavy meromyosin with ATP sensitive heads are suspended in the supernatant when unpurified myosin heavy meromyosin with F actin, ATP and magnesium chloride is centrifuged with the speed of 21000 g at 4° C. ATP insensitive heads will bind F actin irreversibly thus forming the precipitate in the centrifugation step. Purified myosin heavy meromyosin with ATP sensitive heads are ready for the in vitro motility assay.
Rhodamine phalloidin labelling of F-actin F-actin and rhodamine phalloidin are mixed in 1:5 micro molar concentration ratio with low salt assay buffer. Rhodamine phalloidin binds in between the grooves of actin subunits of F-actin. The mixture of F-actin and rhodamine phalloidin is allowed to incubate overnight at 4° C. to allow maximal labelling of F-actin.
Glass coverslips are coated with freshly prepared 2% dichlorodimethylsilane in chloroform. Perfusion chamber is created by two halves of glass coverslips on a clean glass slide with help of vacuum grease. The perfusion chamber is then sealed with dichlorodimethylsilane treated coverslip with two side open to allow perfusion of buffer from one end and wicking on the opposite end. First step in preparation of slide is to immobilize either purified myosin heavy meromyosin or myosin thick filaments. These purified products are diluted with low salt assay buffer to achieve a final concentration of 0.1 μM before adding them in to perfusion chamber. Myosin heavy meromyosin or myosin thick filaments are allowed to immobilize on dichloro-dimethylsilane treated coverslip for a minute. Unbound myosin is washed away by low salt assay buffer once and multiple washes with assay buffer mixed with 0.5 mg/ml bovine serum albumin (AB-BSA) blocks the unbound protein. […]

Here are results for two compounds from patent US12617818B2, “Compositions and methods for modulating myosin subfragment-2 coiled coil stability and methods for using them” (UNIVERSITY OF NORTH TEXAS, priority 2020, dated 2026).

For the compound `CSCC[C@H](NC(=O)[C@H](CCC(=O)O)NC(=O)[C@H](CCCNC(=N)N)NC(=O)[C@H](CCC(=O)O)NC(=O)[C@H](CC(=O)O)NC(=O)[C@H](CCC(=O)O)NC(=O)[C@H](CC(C)C)NC(=O)[C@H](CCCNC(=N)N)NC(=O)[C@H](CCC(=O)O)NC(=O)[C@H](CC(N)=O)NC(=O)[C@H](CCSC)NC(=O)[C@@H](N)CCC(=O)O)C(=O)N[C@@H](CCCCN)C(=O)N[C@@H](C)C(=O)N[C@@H](CCC(=O)O)C(=O)N[C@@H](CC(C)C)C(=O)N[C@H](C(=O)N[C@@H](C)C(=O)N[C@@H](CCCCN)C(=O)O)[C@@H](C)O` [Destabilizer], the “% Contraction” value amounted to 21 ± 3% in experiment [1] (20 nM), 25 ± 8% in experiment [1] (40 nM), 32 ± 4% in experiment [1] (80 nM) and 35 ± 7% in experiment [1] (200 nM). Besides, the “After (sarcomere length after ATP)” value in experiment [1] (20 nM) worked out at 1.7 μm; in experiment [1] (40 nM), 1.7 μm; in experiment [1] (80 nM) it was 1.5 μm; in experiment [1] (200 nM) it was 1.5 μm. Further, the “Before (sarcomere length before ATP)” value in experiment [1] (20 nM) stood at 2.2 μm; in experiment [1] (40 nM), 2.2 μm; in experiment [1] (80 nM), 2.3 μm; in experiment [1] (200 nM), 2.3 μm. Further, the “% Contraction of imaged myofibril (FIG. 55, 56)” value in experiment [1] (40 nM) turned out to be 30%. In experiment [1] (high concentrations), the “induction of contraction compared to control group” value is recorded as “more than two-fold”. The EC50 in experiment [1] (read-out: EC-50 value (50 percent of the increase in percent contraction)) was determined as 8 ± 4 nM. Also, in experiment [1], the IC50 turned out to be 12 ± 6 nM. Also, in experiment [2] (20 nM and 100 nM peptide), the “velocity distribution of actin thin filaments (histogram)” value was around 8.0 microns/second. In addition, the “Average velocity of actin thin filaments” value in experiment [2] (20 nM peptide) stood at 8.22±0.254 microns/second; in experiment [2] (100 nM peptide), 8.39±0.397 microns/second. Also, the “rise of motility of actin thin filaments” value in experiment [2] (vs control) is on record as 18%.

`C[C@H](NC(=O)[C@H](CCCCN)NC(=O)[C@H](Cc1ccccc1)NC(=O)[C@H](CCCCN)NC(=O)[C@H](CCCCN)NC(=O)[C@H](CCCCN)NC(=O)[C@H](CCCCN)NC(=O)[C@H](CCCCN)NC(=O)[C@H](CCCCN)NC(=O)[C@H](CCCCN)NC(=O)[C@@H](N)CCCCN)C(=O)N[C@@H](CCCCN)C(=O)N[C@@H](CCCCN)C(=O)N[C@@H](CCCCN)C(=O)N[C@@H](CCCCN)C(=O)N[C@@H](CCCCN)C(=O)N[C@@H](CCCCN)C(=O)O` [Stabilizer]: the “% Contraction” value worked out at 12 ± 2% in experiment [1] (10 nM), 10 ± 1% in experiment [1] (40 nM), 9 ± 2% in experiment [1] (80 nM) and 8 ± 1% in experiment [1] (200 nM). Moreover, the “After (sarcomere length after ATP)” value in experiment [1] (10 nM) is listed as 1.9 μm; in experiment [1] (40 nM), 1.9 μm; in experiment [1] (80 nM), 2.0 μm; in experiment [1] (200 nM) it was 2.0 μm. The “Before (sarcomere length before ATP)” value worked out at 2.1 μm in experiment [1] (10 nM), 2.2 μm in experiment [1] (40 nM), 2.2 μm in experiment [1] (80 nM) and 2.2 μm in experiment [1] (200 nM). In addition, the “% Contraction of imaged myofibril (FIG. 55, 56)” value in experiment [1] (40 nM) was determined as 11%. For the same compound, the IC50 in experiment [1] stood at 68 ± 27 nM. For the same compound, the “Average velocity of actin thin filaments” value in experiment [2] (20 nM peptide) worked out at 6.18±0.28 microns/second; in experiment [2] (100 nM peptide), 6.21±0.14 microns/second.
